“Also recorded” adds a separate entry of the source. Where no end group is shown, it is not given here.
Experiments:
[1] = test system: Pseudomonas aeruginosa; assay: Bacterial lysis (broth dilution) assay, MBC; assay type: cell-based; parameters: MBC, Psuedomonas aeruginosa, 0 mM NaCl / MBC, Psuedomonas aeruginosa, 150 mM NaCl: unit not given here; details: 99.9% killing; for MBC, Psuedomonas aeruginosa, 0 mM NaCl: 0 mM NaCl (10 mM phosphate buffer); for MBC, Psuedomonas aeruginosa, 150 mM NaCl: 150 mM NaCl (physiologic)
[2] = test system: Indonesia H5N1; assay type: cell-based, influenza virus; details: eleven two-fold serial dilutions from 50 μM, FIG. 24
[3] = test system: vaccine strain of B. anthracis; assay type: cell-based, Bacillus anthracis; details: FIG. 26
[4] = test system: Staphylococcus aureus; assay: Bacterial lysis (broth dilution) assay, MBC; assay type: cell-based; details: 99.9% killing; for MBC, Staphylococcus aureus, 0 mM NaCl: 0 mM NaCl (10 mM phosphate buffer); for MBC, Staphylococcus aureus, 150 mM NaCl: 150 mM NaCl (physiologic)
Description: The assays for growth inhibition of a microbial target can be used to derive a minimum bactericidal concentration (MBC) value for the peptide, i.e., the concentration of peptide required to kill 99.9% (3-log decrease) of the microbial sample being tested. This value is well known to those in the art as representative of the effectiveness of a particular antimicrobial agent (e.g., an antibiotic) against a particular organism or group of organisms. In assays to detect the MBC of a peptide, growth inhibition of a bacterial population also can be measured with reference to the number of colony forming units (cfu) after exposure to a peptide relative to a control experiment without a peptide.
Bacterial lysis assay. Bacterial lysis assays were conducted in a manner similar to that described previously (Lehrer, R. I., M. E. Selsted, D. Szklarek, and F. J. 1983. Infect. Immun. 42: 10-4, 1983; Miller, M. A., R. F. Garry, J. M. Jaynes, and R. C. Montelaro, AIDS Res Hum Retroviruses 7:511-519, 1991). Bacterial suspensions were cultured in Luria-Bertani Broth to mid-log growth phase and washed by two cycles of centrifugation and suspension in 10 mM phosphate buffer. The Abs600 of the suspension was adjusted with 10 mM phosphate buffer such that, upon dilution, 5-10×10^5 cfu/mL would be treated in the assay. Bacteria were incubated for 1 h with two-fold dilutions of peptides (100 μM to 100 nM) in 96-well plates using 10 mM phosphate buffer, pH 7.2, as a diluent. Ten-fold dilutions of bacteria were performed to 1:1 000; a 100 μl aliquot from each condition was spread on the surface of tryptic soy agar plates (Difco, Detroit, Mich.) which were incubated overnight. Colonies of surviving bacteria (cfu, colony-forming units) were counted and compared to untreated controls to determine the amount of peptide-induced killing under each condition. Log killing is defined as the log of the ratio of cfu present before and after treatment with peptide. The minimal bactericidal concentration, MBC, is the peptide concentration at which 99.9% (three log) killing is achieved (Pearson et al., Antimicrob. Agents Chemother. 18: 699-708, 1980).
Results. Representative gram positive (S. aureus) and gram negative (P. aeruginosa) clinical isolates were used as the index bacteria to survey the peptides described herein.
A limitation of many host-derived antimicrobial peptides is their decreased activity at physiologic (150 mM) NaCl concentration. See Friedrich et al., Antimicrobial Agents and Chemotherapy 43:1542-1548. The peptides WLSA-5 (SEQ ID NO: 3) and LL37 were tested against the two index strains at physiologic NaCl. […] The activity of antimicrobial peptides described herein were compared to an expanded list of clinical bacterial isolates. These are summarized in Table 2 by comparing their MBCs in phosphate buffer alone (low salt) and phosphate buffer containing 150 mM NaCl (physiologic conditions). Inspection of this table would lead one skilled in the art to conclude that the activity of antimicrobial peptides described herein compare favorably to the host derived antimicrobial peptides as it relates to the spectrum and potency of antimicrobial activity.

[5] = test system: P. aeruginosa and primary human skin fibroblasts; details: co-culture; cited from earlier work
[6] = test system: C. albicans; assay: In vitro fungal killing assay; details: 6 μM, RPMI 1640, 37° C.; reference strain SC5314 and all clinical isolates
[7] = test system: Indonesia H5N1; assay type: in vivo, mice; details: peptide added to virus just prior to intranasal dose, FIG. 25
[8] = test system: C. lusitaniae; assay: In vitro fungal killing assay; details: 6 μM, RPMI 1640, 37° C.; all isolates
[9] = test system: C. tropicalis
[10] = test system: C. krusei
[11] = test system: P. aeruginosa; details: intravenous administration; cited from earlier work
[12] = test system: Aspergillus fumigatus; assay: In vitro fungal killing assay; details: 2 isolates
[13] = test system: Methicillin Resistant S. aureus; assay type: cell-based, Staphylococcus aureus; parameters: unit not given here; details: 99.9% killing; for MBC, Methicillin Resistant S. aureus, 0 mM NaCl: 0 mM NaCl (10 mM phosphate buffer)
[14] = test system: Cryptococcocus neoformans; assay: In vitro fungal killing assay; details: 3 isolates
[15] = test system: S. aureus; assay: Bactericidal activity in human synovial fluid
[16] = test system: HIV-1 (strain IIIB) virions; assay: Suppression of HIV-1 infectivity, p24 antigen in PHA stimulated PBMCs; assay type: cell-based; details: 1 and 0.1 μM
Description: In this example human peripheral blood […] (PBMCs) were obtained from healthy volunteers and maintained in culture at a concentration of 1×10^5 viable cells per mL of medium. These cells were stimulated by the addition of phytohemagglutinin (PHA). To this a standardized titer of purified HIV-1 (strain IIIB) virions was added to PBMCs to generate a p24 antigen signal of 14,000 pg/mL five days post exposure to virus.
In order to test whether the LLP peptide, LSA-5 (SEQ ID NO: 2) was able to suppress HIV-1 activity, LSA-5 at concentrations ranging between 0.1 and 100 μM were incubated with the standard virus titer determined as above for 30 min. Virions surviving peptide exposure were isolated by ultracentrifugation at 100,000×g for 60 min. Viral pellets were used to infect PHA stimulated PBMCs prepared as described above. Five days post infection the level of p24 antigen was determined and compared to a non-peptide treated control. The data was expressed as the ratio of p24 antigen associated with peptide-treated vs. non-peptide treated HIV-1 infected cells to obtain a value referred to as percent suppression.

[17] = test system: P. aeruginosa; assay: LSA-5 bound to Affigel 15 column, viable bacteria in eluant; details: same column repeatedly exposed to bacterial suspensions
[18] = test system: S. epidermidis; assay: In vitro activity against S. epidermidis
[19] = test system: S. aureus; assay: Rabbit joint model of septic arthritis

## RRWVRRVRRVWRRVVRVVRRWVRR [WLBU-2, RRWVRRVRRVWRRVVRVVRRWVRR]
[1]
  MBC, Psuedomonas aeruginosa, 0 mM NaCl: 200
  MBC, Psuedomonas aeruginosa, 150 mM NaCl: 100
[2]
  infectious virus plaque formation: dose-dependent decrease in infectious virus plaque formation
[3]
  inhibition of vegetative form: inhibit the vegetative form of B. anthracis
[4]
  MBC, Staphylococcus aureus, 0 mM NaCl: 1 µM
  MBC, Staphylococcus aureus, 150 mM NaCl: 0.6 µM
[5]
  antibacterial selectivity: highest antibacterial selectivity of all peptides evaluated
[6]
  time to fully fungicidal effect, C. albicans: ≤ 5 min
[7]
  infectivity of virus in mice: inactivate the infectivity of virus
[8]
  time to fully fungicidal effect, C. lusitaniae: ≤ 5 min
[9]; RPMI 1640, 37° C.
  concentration that completely killed 75% of the isolates, C. tropicalis: 3 µM
  concentration that completely killed the remaining isolates, C. tropicalis: 25 µM
[9]; remaining isolates
  minimum fungicidal concentration (MFC, >99.9% kill), C. tropicalis: ≤ 6 µM
[10]; RPMI 1640, 37° C.
  concentration that completely killed 75% of the isolates, C. krusei: 3 µM
  concentration that completely killed the remaining isolates, C. krusei: 25 µM
[10]; remaining isolates
  minimum fungicidal concentration (MFC, >99.9% kill), C. krusei: ≤ 6 µM
[11]
  protection in murine model: protection against a lethal challenge of P. aeruginosa
[12]
  concentration to which A. fumigatus isolates were resistant: > 100 µM
[13]
  MBC, Methicillin Resistant S. aureus, 0 mM NaCl: 200
[13]; 150 mM NaCl (physiologic)
  MBC, Methicillin Resistant S. aureus, 150 mM NaCl: 100
[14]
  concentration that completely killed C. neoformans: 3 µM

## RVIRVVQRACRAIRHIVRRIRQGLRRILRVV [LSA-5, RVIRVVQRACRAIRHIVRRIRQGLRRILRVV]
[15]; 1:4 dilution of human synovial fluid, FIG. 10
  concentration at which peptide is still active in synovial fluid: 128 µM
[15]; versus phosphate buffer containing physiologic NaCl
  effect of synovial fluid on activity: clearly impairs the activity
[1]
  MBC, Psuedomonas aeruginosa, 0 mM NaCl: 800
  MBC, Psuedomonas aeruginosa, 150 mM NaCl: 800
[4]
  MBC, Staphylococcus aureus, 0 mM NaCl: 1 µM
  MBC, Staphylococcus aureus, 150 mM NaCl: 1 µM
[16]
  reduction of HIV-1 infectivity: drop off this inhibitory activity
[17]
  passages of bacterial suspension over which the column maintained activity: up to 6 passages
[18]
  activity against S. epidermidis in vitro: highly active
[19]; 50, 100 and 200 μM intraarticularly, 1 h after instillation, versus non-peptide treated joint, FIG. 11
  bacteria (colony forming units) in joint fluid: dose-dependent decrease in colony forming units; also recorded: significantly increases bacterial killing
[19]; intraarticular at 0, 1 and 2 h, FIG. 12
  bacterial load in joint, comparison with 0.35% neomycin: nearly as effective as a standard concentration of neomycin
[19]; peptide administered alone, intraarticular
  adverse toxicity in animal experiments: no adverse toxicity was observed
[19]; two treatments of 150 μM at 0 and 1 h, 1 h post-treatment, versus phosphate buffer
  bacterial load in joint: significant decrease
[13]
  MBC, Methicillin Resistant S. aureus, 0 mM NaCl: 150

Source: US8071540B2, “Virus derived antimicrobial peptides” (priority 2007, dated 2011)
